Data on four molecules can be found in publication PMC5222549 (Journal of immunology (Baltimore, Md. : 1950), 2016).

For one experiment, the target named is T1, mCRT(ΔP) (Mus musculus, UniProt P14211, DEL204-300).
T1 sequence (P14211 with tags, fused parts or gaps DEL204-300): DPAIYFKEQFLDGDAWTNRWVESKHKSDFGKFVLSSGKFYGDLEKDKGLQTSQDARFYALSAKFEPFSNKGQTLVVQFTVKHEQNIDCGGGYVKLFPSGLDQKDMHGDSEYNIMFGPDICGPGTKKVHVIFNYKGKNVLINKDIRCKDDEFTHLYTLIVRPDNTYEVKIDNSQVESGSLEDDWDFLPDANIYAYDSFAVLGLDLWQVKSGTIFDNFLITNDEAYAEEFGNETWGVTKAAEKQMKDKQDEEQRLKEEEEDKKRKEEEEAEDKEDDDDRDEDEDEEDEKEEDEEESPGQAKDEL
Description: isothermal titration calorimetry, lipid vesicles titrated into […] protein. The experiment is classed as binding. Background: Isothermal titration calorimetry measures the heat released or taken up as one component is titrated into another.

The target in a further experiment is T2, mCRT(1-351) (Mus musculus, UniProt P14211).
T2 sequence (P14211 18-368): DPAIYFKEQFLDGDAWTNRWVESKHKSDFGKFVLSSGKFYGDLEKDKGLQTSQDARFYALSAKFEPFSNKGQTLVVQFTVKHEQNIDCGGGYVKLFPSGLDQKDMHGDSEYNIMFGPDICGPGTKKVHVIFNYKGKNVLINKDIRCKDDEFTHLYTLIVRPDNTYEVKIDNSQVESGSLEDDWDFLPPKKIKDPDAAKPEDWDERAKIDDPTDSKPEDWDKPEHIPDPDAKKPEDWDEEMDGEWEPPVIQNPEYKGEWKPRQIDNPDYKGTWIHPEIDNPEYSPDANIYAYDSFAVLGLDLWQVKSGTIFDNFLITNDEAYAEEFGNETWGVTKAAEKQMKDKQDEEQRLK
The description is as above. The experiment is classed as binding.

In another experiment the target is T3, mCRT(1-351 ΔP) (Mus musculus, UniProt P14211, DEL204-300).
T3 sequence (P14211 with tags, fused parts or gaps DEL204-300): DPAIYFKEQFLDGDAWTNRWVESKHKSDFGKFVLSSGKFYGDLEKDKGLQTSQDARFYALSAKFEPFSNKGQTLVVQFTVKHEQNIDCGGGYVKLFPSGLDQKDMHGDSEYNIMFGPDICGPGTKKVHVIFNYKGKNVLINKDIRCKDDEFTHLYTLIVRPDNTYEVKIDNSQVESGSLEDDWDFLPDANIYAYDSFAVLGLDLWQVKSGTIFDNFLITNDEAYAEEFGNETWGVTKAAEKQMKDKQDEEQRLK
The description is as above. In kind it is binding.

The target of the next experiment is T4, mCRT(WT) (Mus musculus, UniProt P14211).
T4 sequence (P14211 18-416): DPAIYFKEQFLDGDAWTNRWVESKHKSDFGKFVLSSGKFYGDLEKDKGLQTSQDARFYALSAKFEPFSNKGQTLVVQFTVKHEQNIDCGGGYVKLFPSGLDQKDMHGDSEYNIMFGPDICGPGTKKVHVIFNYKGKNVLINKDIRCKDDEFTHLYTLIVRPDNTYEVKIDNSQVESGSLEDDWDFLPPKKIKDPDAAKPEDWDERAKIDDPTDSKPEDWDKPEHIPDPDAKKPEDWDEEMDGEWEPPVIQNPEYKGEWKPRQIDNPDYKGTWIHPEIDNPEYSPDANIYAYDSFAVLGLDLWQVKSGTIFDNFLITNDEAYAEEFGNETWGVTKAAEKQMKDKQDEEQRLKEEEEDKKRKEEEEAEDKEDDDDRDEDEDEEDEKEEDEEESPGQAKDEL
The description is as above. In kind it is binding.

Experiment [1] has as its target GB1-mCRT(P), the P-domain of murine calreticulin (residues 187-283) fused with the B1 domain of protein G (mouse). As to the kind of experiment: BLI. On the technique in general: BLI is a label-free optical method that tracks binding on a fibre tip over time.
Another experiment deals with T5, GB1-mCRT(C) (Mus musculus, UniProt P14211).
T5 sequence (P14211 357-416): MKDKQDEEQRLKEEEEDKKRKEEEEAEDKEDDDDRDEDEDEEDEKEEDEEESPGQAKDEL
Description: isothermal titration calorimetry, lipid vesicles titrated into […] protein. The experiment is classed as binding.

The next experiment addresses T6, ERp57 (UniProt P30101 25-505).
T6 sequence (looked up): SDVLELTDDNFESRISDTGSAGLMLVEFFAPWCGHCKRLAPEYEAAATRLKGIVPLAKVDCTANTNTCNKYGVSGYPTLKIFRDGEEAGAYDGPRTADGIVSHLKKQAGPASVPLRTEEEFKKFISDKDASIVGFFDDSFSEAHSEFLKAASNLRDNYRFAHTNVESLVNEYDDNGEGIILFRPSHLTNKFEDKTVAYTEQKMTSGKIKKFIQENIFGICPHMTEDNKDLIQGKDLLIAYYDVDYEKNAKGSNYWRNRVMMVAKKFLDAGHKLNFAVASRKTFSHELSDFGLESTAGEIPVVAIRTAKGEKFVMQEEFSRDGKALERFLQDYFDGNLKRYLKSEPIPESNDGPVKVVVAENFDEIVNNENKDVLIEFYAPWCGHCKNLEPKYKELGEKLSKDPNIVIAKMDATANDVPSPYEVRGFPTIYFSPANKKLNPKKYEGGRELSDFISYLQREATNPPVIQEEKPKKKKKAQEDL
Description: BLI.

Take `CCCCCCCC/C=C\CCCCCCCC(=O)O[C@H](COC(=O)CCCCCCCCCCCCCCC)COP(=O)([O-])OCC[N+](C)(C)C` [POPC]: the Kd at mCRT(ΔP) amounted to 92.5 ± 11 µM; at mCRT(1-351) it was 53.4 ± 13.8 µM; at mCRT(1-351 ΔP), 42.6 ± 11.5 µM; on mCRT(WT), 158 ± 37.3 µM.
In the case of “ERp57 (from UniProt P30101 25-505) (natural protein)”, the Kd in experiment [1] was 0.101 µM.
With `CCCCCCCC/C=C\CCCCCCCC(=O)O[C@H](COC(=O)CCCCCCCCCCCCCCC)COP(=O)(O)OC[C@H](N)C(=O)O` [POPS], the Kd was found to be 7.5 ± 5.69 µM on mCRT(ΔP); 28.2 ± 4.3 µM at GB1-mCRT(C); 32 ± 5.54 µM on mCRT(1-351); 20.2 ± 4.08 µM on mCRT(1-351 ΔP); 12.1 ± 4.49 µM at mCRT(WT).

B1: wild type murine calreticulin, mCRT(WT) (natural protein, mouse, UniProt P14211 18-416, looked up)
chain: T4 sequence (P14211 18-416)
In the experiment with ERp57, B1 had a dissociation constant (Kd) of 0.282 ± 0.038 µM.

The term Kd denotes the concentration at which binding is half-saturated. Read a high Kd as lower affinity.
